Molecular target: αvβ6 integrin (Homo sapiens, UniProt P06756+P18564)
Test: IC50 binding activity (Examples 3 and 12)
Conditions: Example 12, Table 17; azide-functionalized structures (2b, 6.1b, 7b, 23b) examined
Source text: As reported in the following Table 1, IC50 binding data was obtained for the αvβ6 integrin ligands of Structures 1 and 2:
Azide-functionalized structures (i.e., Structures 1b and 2b) were examined for IC50 under conditions typically used and known in the art.
As reported in the following Table 17, additional IC50 binding data was obtained for the αvβ6 integrin ligands of Structures 2, 6.1, 7, and 23 used in certain Examples herein: […]

Sequence of αvβ6 integrin (P06756 31-1048): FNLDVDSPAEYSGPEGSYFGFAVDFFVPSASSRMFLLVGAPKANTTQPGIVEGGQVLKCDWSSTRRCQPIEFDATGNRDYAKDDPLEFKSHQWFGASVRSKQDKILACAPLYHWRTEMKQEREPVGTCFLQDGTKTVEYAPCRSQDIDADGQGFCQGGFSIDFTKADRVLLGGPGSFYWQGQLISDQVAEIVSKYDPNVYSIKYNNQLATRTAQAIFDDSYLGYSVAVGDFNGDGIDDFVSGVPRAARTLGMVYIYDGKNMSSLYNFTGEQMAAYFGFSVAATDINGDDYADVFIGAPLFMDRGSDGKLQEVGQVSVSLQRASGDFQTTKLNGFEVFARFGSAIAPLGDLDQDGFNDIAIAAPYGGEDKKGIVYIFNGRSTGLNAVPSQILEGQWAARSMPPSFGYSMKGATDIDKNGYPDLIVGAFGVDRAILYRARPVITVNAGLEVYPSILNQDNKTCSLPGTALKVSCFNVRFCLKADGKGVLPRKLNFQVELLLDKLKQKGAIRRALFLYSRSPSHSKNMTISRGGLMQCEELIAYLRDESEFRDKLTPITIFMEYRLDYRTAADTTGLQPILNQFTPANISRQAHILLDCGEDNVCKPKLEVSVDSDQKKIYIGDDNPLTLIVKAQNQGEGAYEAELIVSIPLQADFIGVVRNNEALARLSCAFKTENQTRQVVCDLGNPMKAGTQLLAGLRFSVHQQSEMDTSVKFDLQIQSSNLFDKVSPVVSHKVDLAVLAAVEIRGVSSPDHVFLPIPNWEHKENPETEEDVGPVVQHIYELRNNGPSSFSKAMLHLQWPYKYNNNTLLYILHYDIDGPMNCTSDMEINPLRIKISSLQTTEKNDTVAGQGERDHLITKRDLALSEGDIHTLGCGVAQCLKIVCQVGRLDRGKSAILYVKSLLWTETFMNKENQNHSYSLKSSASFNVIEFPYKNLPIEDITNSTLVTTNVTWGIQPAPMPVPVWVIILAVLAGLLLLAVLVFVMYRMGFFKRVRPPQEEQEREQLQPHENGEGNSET
Sequence of αvβ6 integrin (P18564 22-788): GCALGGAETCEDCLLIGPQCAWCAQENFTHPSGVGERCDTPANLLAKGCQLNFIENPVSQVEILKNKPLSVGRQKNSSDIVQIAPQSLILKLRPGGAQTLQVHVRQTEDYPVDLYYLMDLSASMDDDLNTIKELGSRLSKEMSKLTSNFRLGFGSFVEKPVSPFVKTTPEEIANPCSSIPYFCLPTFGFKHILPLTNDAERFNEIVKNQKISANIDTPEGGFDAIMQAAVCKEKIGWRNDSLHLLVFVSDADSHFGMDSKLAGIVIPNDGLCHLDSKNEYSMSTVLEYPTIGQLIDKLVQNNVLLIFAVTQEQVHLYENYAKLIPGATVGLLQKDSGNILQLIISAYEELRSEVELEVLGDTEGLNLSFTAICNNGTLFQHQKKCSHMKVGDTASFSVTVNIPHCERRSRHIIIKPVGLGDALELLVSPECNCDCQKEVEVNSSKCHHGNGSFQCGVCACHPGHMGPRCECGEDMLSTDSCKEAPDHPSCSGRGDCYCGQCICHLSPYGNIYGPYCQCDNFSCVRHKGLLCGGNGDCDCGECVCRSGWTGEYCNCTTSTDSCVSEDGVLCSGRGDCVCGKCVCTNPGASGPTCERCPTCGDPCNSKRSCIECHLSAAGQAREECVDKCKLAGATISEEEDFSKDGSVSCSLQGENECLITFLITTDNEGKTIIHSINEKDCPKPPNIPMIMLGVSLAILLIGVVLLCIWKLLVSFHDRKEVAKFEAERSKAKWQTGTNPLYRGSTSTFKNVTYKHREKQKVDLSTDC

IC50: 1.6 nM
SMILES: Cc1ccnc(NCCCC(=O)NCC(=O)N[C@@H](CC(=O)O)c2ccc(-c3ccc(OCCOCCOCCOCCOCCN=[N+]=[N-])c4ccccc34)cc2)c1 [Structure 6.1]

Source: patent US11597701B2, “Integrin ligands and uses thereof” (Arrowhead Pharmaceuticals, Inc., priority 2017, dated 2023)
